Assay results as given in US20260008787A1, “FUSED RING KRAS INHIBITORS FOR TREATING DISEASE” (BLOSSOMHILL THERAPEUTICS, INC., priority 2022, published 2026).
pIC50: −log10 of the molar value.

Columns and labels:
SW620 (KRAS G12V) = test: Cell proliferation assay (CellTiter-Glo, 72 hours), SW620; format: cell-based; settings: 384-well, CellTiter-Glo 2.0
Procedure: (§1) Two thousand KRAS mutant cells per well were seeded in 384-well white plate and then treated with indicated compounds for 72 hours at 37° C. and 5% CO2. Cell proliferation was measured using CellTiter-Glo 2.0 luciferase-based ATP detection assay (Promega, Madison, WI) following the manufacturer's protocol. IC50 values were determined using Prism software (GraphPad Software, San Diego, CA).

AGS (G12D) = test: Cell proliferation assay (CellTiter-Glo, 72 hours), AGS; format: cell-based; settings: 384-well, CellTiter-Glo 2.0
Procedure: as §1

KRAS G12V = KRAS G12V (Homo sapiens, UniProt P01116, G12V); test: biochemical
KRAS G12D = KRAS G12D (Homo sapiens, UniProt P01116, G12D); test: biochemical
GP2D (KRAS G12D) = test: Cell proliferation assay (CellTiter-Glo, 72 hours), GP2D; format: cell-based; settings: 384-well, CellTiter-Glo 2.0
Procedure: as §1

KRAS G12V, sequence (P01116 1-188 isoform P01116-2 G12V): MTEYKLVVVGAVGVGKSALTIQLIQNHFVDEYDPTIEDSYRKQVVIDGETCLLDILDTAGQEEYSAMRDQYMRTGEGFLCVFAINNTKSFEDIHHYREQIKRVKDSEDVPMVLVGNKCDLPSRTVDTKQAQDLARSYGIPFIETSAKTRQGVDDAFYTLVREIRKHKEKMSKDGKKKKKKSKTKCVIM
KRAS G12D, sequence (P01116 1-188 isoform P01116-2 G12D): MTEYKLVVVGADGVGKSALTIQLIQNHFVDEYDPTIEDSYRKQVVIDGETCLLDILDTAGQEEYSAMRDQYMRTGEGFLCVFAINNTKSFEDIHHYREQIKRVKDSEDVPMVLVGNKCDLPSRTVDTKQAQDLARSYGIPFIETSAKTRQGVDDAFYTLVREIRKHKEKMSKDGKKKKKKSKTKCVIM

CCc1c(F)ccc2cc(O)cc(-c3nc4c5c(nc(OC[C@@]67CCCN6C[C@H](F)C7)nc5c3F)N3CCCC(O)C3CO4)c12 (stereo partly drawn) [Example 119, 5-(8-ethyl-7-fluoro-3-hydroxynaphthalen-1-yl)-4-fluoro-2-{[(2R,7aS)-2-fluorotetrahydro-1H-pyrrolizin-7a(5H)-yl]methoxy}-8,8a,9,10,11,12-hexahydro-7-oxa-1,3,6,12a-tetraazabenzo[4,5]cyclohepta[1,2,3-de]naphthalen-9-ol]
pIC50 (SW620 (KRAS G12V); Homo sapiens, SW-620, 72 h): 6.51
pIC50 (AGS (G12D); 72 h): 6.59
pIC50 (KRAS G12V): 8.67
pIC50 (KRAS G12D): 8.61
pIC50 (GP2D (KRAS G12D); GP2d, 72 h): 6.99

C#Cc1c(F)ccc2cc(O)cc(-c3nc4c5c(nc(OC[C@@]67CCCN6C[C@H](F)C7)nc5c3F)N(CC)[C@@H](C)CO4)c12 [Example 127, 4-[(9S)-10-ethyl-4-fluoro-2-{[(2R,7aS)-2-fluorotetrahydro-1H-pyrrolizin-7a(5H)-yl]methoxy}-9-methyl-9,10-dihydro-8H-7-oxa-1,3,6,10-tetraazacyclohepta[1,2,3-de]naphthalen-5-yl]-5-ethynyl-6-fluoronaphthalen-2-ol]
pIC50 (SW620 (KRAS G12V); Homo sapiens, SW-620, 72 h): 8.01
pIC50 (AGS (G12D); 72 h): 8.06
pIC50 (KRAS G12V): 8.49
pIC50 (KRAS G12D): 8.58
pIC50 (GP2D (KRAS G12D); GP2d, 72 h): 8.34

C#Cc1c(F)ccc2cc(O)cc(-c3cc4c5c(nc(OC[C@@]67CCCN6C[C@H](F)C7)nc5c3F)N3CCCC[C@H]3CO4)c12 [Example 45, 5-ethynyl-6-fluoro-4-[(8aS)-4-fluoro-2-{[(2R,7aS)-2-fluorotetrahydro-1H-pyrrolizin-7a(5H)-yl]methoxy}-8,8a,9,10,11,12-hexahydropyrido[2′,1′:3,4][1,4]oxazepino[5,6,7-de]quinazolin-5-yl]naphthalen-2-ol]
pIC50 (SW620 (KRAS G12V); Homo sapiens, SW-620, 72 h): 6.49
pIC50 (AGS (G12D); 72 h): 6.21
pIC50 (KRAS G12V): 8.63
pIC50 (KRAS G12D): 8.48
pIC50 (GP2D (KRAS G12D); GP2d, 72 h): 6.44

C#Cc1c(F)ccc2cc(O)cc(-c3nc4c5c(nc(OC[C@@]67CCCN6C[C@H](F)C7)nc5c3F)NCCO4)c12 [Example 82, 5-ethynyl-6-fluoro-4-(4-fluoro-2-{[(2R,7aS)-2-fluorotetrahydro-1H-pyrrolizin-7a(5H)-yl]methoxy}-9,10-dihydro-8H-7-oxa-1,3,6,10-tetraazacyclohepta[1,2,3-de]naphthalen-5-yl)naphthalen-2-ol]
pIC50 (SW620 (KRAS G12V); Homo sapiens, SW-620, 72 h): < 5.52
pIC50 (AGS (G12D); 72 h): 5.84
pIC50 (KRAS G12V): 8.55
pIC50 (KRAS G12D): 8.58
pIC50 (GP2D (KRAS G12D); GP2d, 72 h): 6.33

C#Cc1c(F)ccc2cc(O)cc(-c3nc4c5c(nc(OC[C@@]67CCCN6C/C(=C\F)C7)nc5c3F)N3CCCC[C@H]3CO4)c12 [Example 52, 5-ethynyl-6-fluoro-4-[(8aS)-4-fluoro-2-{[(2Z,7aS)-2-(fluoromethylidene)tetrahydro-1H-pyrrolizin-7a(5H)-yl]methoxy}-8,8a,9,10,11,12-hexahydro-7-oxa-1,3,6,12a-tetraazabenzo[4,5]cyclohepta[1,2,3-de]naphthalen-5-yl]naphthalen-2-ol]
pIC50 (SW620 (KRAS G12V); Homo sapiens, SW-620, 72 h): 8.04
pIC50 (AGS (G12D); 72 h): 8.11
pIC50 (KRAS G12V): 8.65
pIC50 (KRAS G12D): 8.65
pIC50 (GP2D (KRAS G12D); GP2d, 72 h): 8.76

CC[C@H]1COc2nc(-c3cc(O)cc4ccc(F)c(Cl)c34)c(F)c3nc(OC[C@@]45CCCN4C[C@H](F)C5)nc(c23)N1C [Example 111, 5-chloro-4-[(9S)-9-ethyl-4-fluoro-2-{[(2R,7aS)-2-fluorotetrahydro-1H-pyrrolizin-7a(5H)-yl]methoxy}-10-methyl-9,10-dihydro-8H-7-oxa-1,3,6,10-tetraazacyclohepta[1,2,3-de]naphthalen-5-yl]-6-fluoronaphthalen-2-ol]
pIC50 (SW620 (KRAS G12V); Homo sapiens, SW-620, 72 h): 6.30
pIC50 (AGS (G12D); 72 h): 6.44
pIC50 (KRAS G12V): 8.85
pIC50 (KRAS G12D): 8.89
pIC50 (GP2D (KRAS G12D); GP2d, 72 h): 7.22

C#Cc1c(F)ccc2cc(O)cc(-c3nc4c5c(nc(OC[C@@]67CCCN6C[C@H](F)C7)nc5c3F)N3CC(C(N)=O)CCC3CO4)c12 (stereo partly drawn) [Example 110, 5-(8-ethynyl-7-fluoro-3-hydroxynaphthalen-1-yl)-4-fluoro-2-{[(2R,7aS)-2-fluorotetrahydro-1H-pyrrolizin-7a(5H)-yl]methoxy}-8,8a,9,10,11,12-hexahydro-7-oxa-1,3,6,12a-tetraazabenzo[4,5]cyclohepta[1,2,3-de]naphthalene-11-carboxamide]
pIC50 (SW620 (KRAS G12V); Homo sapiens, SW-620, 72 h): < 5.52
pIC50 (AGS (G12D); 72 h): < 5.52
pIC50 (KRAS G12V): < 5.00
pIC50 (KRAS G12D): < 5.00
pIC50 (GP2D (KRAS G12D); GP2d, 72 h): < 5.52

N#Cc1c(N)sc2c(F)ccc(-c3nc4c5c(nc(OC[C@@]67CCCN6C[C@H](F)C7)nc5c3F)N3CCCC[C@H]3CO4)c12 [Example 85, 2-amino-7-fluoro-4-[(8aS)-4-fluoro-2-{[(2R,7aS)-2-fluorotetrahydro-1H-pyrrolizin-7a(5H)-yl]methoxy}-8,8a,9,10,11,12-hexahydro-7-oxa-1,3,6,12a-tetraazabenzo[4,5]cyclohepta[1,2,3-de]naphthalen-5-yl]-1-benzothiophene-3-carbonitrile]
pIC50 (SW620 (KRAS G12V); Homo sapiens, SW-620, 72 h): 6.09
pIC50 (AGS (G12D); 72 h): 6.20
pIC50 (KRAS G12V): 8.66
pIC50 (KRAS G12D): 8.63
pIC50 (GP2D (KRAS G12D); GP2d, 72 h): 6.84

C#Cc1c(F)ccc2cc(O)cc(-c3nc4c5c(nc(OC[C@@]67CCCN6C[C@H](F)C7)nc5c3F)N(C)C3(CC3)CO4)c12 [Example 93]
pIC50 (SW620 (KRAS G12V); Homo sapiens, SW-620, 72 h): 6.01
pIC50 (AGS (G12D); 72 h): 6.25
pIC50 (KRAS G12V): 8.81
pIC50 (KRAS G12D): 8.70
pIC50 (GP2D (KRAS G12D); GP2d, 72 h): 6.85

Fc1c(-c2c(Cl)ccc3[nH]nc(Cl)c23)nc2c3c(nc(OC[C@@]45CCCN4C[C@H](F)C5)nc13)N1CCCC[C@H]1CO2 (atropisomer, axis not shown) [Example 84, (7S)-12-(3,5-dichloro-1H-indazol-4-yl)-13-fluoro-16-[[(2R,8S)-2-fluoro-1,2,3,5,6,7-hexahydropyrrolizin-8-yl]methoxy]-9-oxa-2,11,15,17-tetrazatetracyclo[8.7.1.02, 7.014,18]octadeca-1 (17),10 (18),11,13,15-pentaene]
pIC50 (SW620 (KRAS G12V)): < 5.52
pIC50 (AGS (G12D)): < 5.52
pIC50 (KRAS G12V): 7.32
pIC50 (KRAS G12D): 7.26
pIC50 (GP2D (KRAS G12D)): < 5.52

C#Cc1c(F)ccc2cc(O)cc(-c3nc4c5c(nc(OC[C@@]67CCCN6C[C@H](F)C7)nc5c3F)N3C[C@H](C#N)CC[C@H]3CO4)c12 [Example 118, (5aS,8R)-2-(8-ethynyl-7-fluoro-3-hydroxynaphthalen-1-yl)-1-fluoro-11-(((2R,7aS)-2-fluorotetrahydro-1H-pyrrolizin-7a(5H)-yl)methoxy)-5,5a,6,7,8,9-hexahydro-4-oxa-3,9a,10,12-tetraazabenzo[4,5]cyclohepta[1,2,3-de]naphthalene-8-carbonitrile]
pIC50 (SW620 (KRAS G12V); Homo sapiens, SW-620, 72 h): < 5.52
pIC50 (AGS (G12D); 72 h): < 5.52
pIC50 (KRAS G12V): 7.23
pIC50 (KRAS G12D): 7.28
pIC50 (GP2D (KRAS G12D); GP2d, 72 h): < 5.52

C#Cc1c(F)ccc2cc(O)cc(-c3nc4c5c(nc(OC[C@@]67CCCN6C[C@H](F)C7)nc5c3F)N3CCC[C@@H](O)[C@H]3CO4)c12 [compound 25, (8aR,9R)-5-(8-ethynyl-7-fluoro-3-hydroxynaphthalen-1-yl)-4-fluoro-2-{[(2R,7aS)-2-fluorotetrahydro-1H-pyrrolizin-7a(5H)-yl]methoxy}-8,8a,9,10,11,12-hexahydro-7-oxa-1,3,6,12a-tetraazabenzo[4,5]cyclohepta[1,2,3-de]naphthalen-9-ol]
pIC50 (SW620 (KRAS G12V); Homo sapiens, SW-620, 72 h): 6.18
pIC50 (AGS (G12D); 72 h): 6.78
pIC50 (KRAS G12V): 8.67
pIC50 (KRAS G12D): 8.69
pIC50 (GP2D (KRAS G12D); GP2d, 72 h): 7.12

C#Cc1c(F)ccc2cc(O)cc(-c3nc4c5c(nc(OC[C@@]67CCCN6C[C@H](F)C7)nc5c3F)N3CCCC(O4)C3CO)c12 (some centres unmarked) [Example 104]
pIC50 (SW620 (KRAS G12V); Homo sapiens, SW-620, 72 h): 6.04
pIC50 (AGS (G12D); 72 h): 6.18
pIC50 (KRAS G12V): 8.05
pIC50 (KRAS G12D): 8.12
pIC50 (GP2D (KRAS G12D); GP2d, 72 h): 6.72

Fc1c(-c2c(Cl)ccc3[nH]nc(Cl)c23)nc2c3c(nc(OC[C@@]45CCCN4C[C@H](F)C5)nc13)N1CCCC[C@H]1CO2 (atropisomer, axis not shown) [Example 83, (7S)-12-(3,5-dichloro-1H-indazol-4-yl)-13-fluoro-16-[[(2R,8S)-2-fluoro-1,2,3,5,6,6-4hexahydropyrrolizin-8-yl]methoxy]-9-oxa-2,11,15,17-tetrazatetracyclo[8.7.1.02,7.014,18]octadeca-1 (17),10 (18),11,13,15-pentaene]
pIC50 (SW620 (KRAS G12V); Homo sapiens, SW-620, 72 h): < 5.52
pIC50 (AGS (G12D); 72 h): < 5.52
pIC50 (KRAS G12V): 7.23
pIC50 (KRAS G12D): 7.22
pIC50 (GP2D (KRAS G12D)): 5.97

C#Cc1c(F)ccc2cc(O)cc(-c3nc4c5c(nc(OC[C@@]67CCCN6C[C@H](F)C7)nc5c3F)N3CCC[C@H](O)[C@@H]3CO4)c12 [compound 103, (8aS,9S)-5-(8-ethynyl-7-fluoro-3-hydroxynaphthalen-1-yl)-4-fluoro-2-{[(2R,7aS)-2-fluorotetrahydro-1H-pyrrolizin-7a(5H)-yl]methoxy}-8,8a,9,10,11,12-hexahydro-7-oxa-1,3,6,12a-tetraazabenzo[4,5]cyclohepta[1,2,3-de]naphthalen-9-ol]
pIC50 (SW620 (KRAS G12V); Homo sapiens, SW-620, 72 h): < 5.52
pIC50 (AGS (G12D); 72 h): 6.03
pIC50 (KRAS G12V): 7.80
pIC50 (KRAS G12D): 7.65
pIC50 (GP2D (KRAS G12D); GP2d, 72 h): 6.24

C#Cc1c(F)ccc2cc(O)cc(-c3nc4c5c(nc(OC[C@@]67CCCN6C[C@H](F)C7)nc5c3F)N(C)[C@@H](C)CO4)c12 [Example 50, 5-ethynyl-6-fluoro-4-[(9S)-4-fluoro-2-{[(2R,7aS)-2-fluorotetrahydro-1H-pyrrolizin-7a(5H)-yl]methoxy}-9,10-dimethyl-9,10-dihydro-8H-7-oxa-1,3,6,10-tetraazacyclohepta[1,2,3-de]naphthalen-5-yl]naphthalen-2-ol]
pIC50 (SW620 (KRAS G12V); Homo sapiens, SW-620, 72 h): 7.59
pIC50 (AGS (G12D); 72 h): 7.55
pIC50 (KRAS G12V): 8.70
pIC50 (KRAS G12D): 8.77
pIC50 (GP2D (KRAS G12D); GP2d, 72 h): 8.05
